# From patent publication US7253176B1, “Immunosuppressive effects of 8-substituted xanthine derivatives” (K.U. Leuven Research & Development, priority 2000, dated 2007)
# What was measured:
# Highly purified T cells [1] = assay: T cell proliferation induced by anti-CD28 mAb+PMA (BrdU); assay type: cell-based, human; settings: anti-CD28 mAb+PMA pathway, read-out: IC50 aCD28
# From the text: (§1) Various models may be used for testing an immunosuppressive effect. In vivo, for example, different transplantation models are available. They are strongly influenced by different immunogenicities, depending on the donor and recipient species used and depending on the nature of the transplanted organ. The survival time of transplanted organs can thus be used to measure the suppression of the immune response. In vitro, there exist also various models. The most used are lymphocyte activation tests. Usually activation is measured via lymphocyte proliferation. Inhibition of proliferation thus always means immunosuppression under the experimental conditions applied. There exist different stimuli for lymphocyte activation: • coculture of lymphocytes of […] (MLR=mixed lymphocyte reaction): lymphocytes expressing different minor and major antigens of the HLA-DR type (=allogens) activate each other non-specifically. • CD3 assay: here there is an activation of the T-lymphocytes via an exogenously added antibody (OKT3). This antibody reacts against the CD3 molecule located on the lymphocyte membrane. This molecule has a […]. […] This molecule is also located on the lymphocyte membrane, and delivers strong costimulatory signals. […] Reagents
# T cells were purified by removing non-T cells. Briefly, monocytes were removed by cold agglutination. The resulting lymphoid cells were further purified by a cell enrichment immunocolumn [Cellect Human T (Biotex, Edmonton, Alberta, Canada)] by a process of negative selection. More than 95% of the B cells were removed with this procedure. After depletion, the resulting T cell preparation was highly purified explaining these cells could not be activated by PHA or rIL-2 alone at concentrations capable of stimulating RBMC prior to deletion.
# (§2) Measurements of T Cell Proliferations Induced by Anti-CD3 mAB+PMA or Anti-CD28 mAb+PMA
# (§3) Highly purified T cells (10^6/ml) were stimulated by immobilized anti-CD3 or anti-CD28 mAb in the presence of PMA. Anti-CD3 mAb (CLB-CD3; CLB, Amsterdam, The Netherlands) were fixed on the 96-microwell plates by incubating the wells with 50 μl of mAb solution […] 50 μl (1/650 dilution in culture medium) was added directly to the wells. Further, 20 μl PMA (Sigma, St. Louis, Mo., USA) solution (final concentration: 0.5 ng/ml) was added. Subsequently, 20 μl of immunosuppressants were added by serial dilution in triplicate wells. Finally 100 μl of the T cell suspension (10^6/ml) was added. After 48-hour incubation at 37° C. in 5% CO2 20 μl BrdU (100 μM solution) (Cell Proliferation Elisa, Boehringer-Mannheim Belgium) was added to each well. After a further overnight incubation the T cell proliferation was measured using a calorimetric immunoassay for qualification of cell proliferation based on measurements of the incorporation of BrdU during DNA synthesis. The optical density (OD) was measured by a Behring EL311 place reader at 450 nm (reference wavelength: […]). The percent suppression of proliferation by drugs was counted using the formula: […]
# [2] = test system: Con A induced proliferation of lymphocytes; assay: Whole Blood Assay (WBA): Con A induced lymphoproliferation in blood of rats given test substances in vivo; design: species or system R/A rats; settings: orally 40 mg/kg/d 2x/d 2d, blood taken after 8 h, Con A 15 μg/ml
# Experimental: [formula] […] Whole Blood Assay (WBA): WBA is a lymphoproliferation assay performed in vitro but using lymphocytes present in whole blood, taken from animals that were previously given test substances in vivo.
# Rats: inbred, male 6- to 8-weeks old R/A rats weighing ±200 g were used as recipients.
# Drug administration: xanthine derivatives were dissolved in DMSO and further diluted with PBS. Products were given orally in different concentrations 2 times a day for 2 days. To perform the experiments, 6–8 hours after the last administration 1 ml of blood is taken by heart puncture after ether anesthesia and anticoagulated with 100 U/ml of preservative free heparine. […]
# Heparinized whole blood was diluted (1:25) with complete RPMI medium and stimulated with 15 μg/ml of concanavalin A (Con A) in triplicate wells in 96-well microtiter plates at 37° C. and 5% CO2. After 96-h culture, proliferation was determined by measuring the incorporation (cpm) of [^3H]-thymidine.
# The Con A induced proliferation of lymphocytes taken from rats receiving the test substances (exp) was compared with that from rats receiving only the solvent (con). The percent suppression was calculated as follows: […]
# Highly purified T cells [3] = assay: T cell proliferation induced by anti-CD3 mAb+PMA (BrdU); assay type: cell-based, human; settings: anti-CD3 mAb+PMA pathway, read-out: IC50 aCD3
# From the text: T cells were purified by removing non-T cells. Briefly, monocytes were removed by cold agglutination. The resulting lymphoid cells were further purified by a cell enrichment immunocolumn [Cellect Human T (Biotex, Edmonton, Alberta, Canada)] by a process of negative selection.
# as §2, §3
# [4] = test system: Peripheral blood mononuclear cells (PBMC); assay: Mixed lymphocyte reaction (MLR), [3H]-thymidine incorporation; assay type: cell-based, human; settings: lowest concentration giving 50% suppression of the MLR
# From the text: as §1
# Mixed Lymphocyte Reaction
# Peripheral blood mononuclear cells (PBMC) were isolated from heparinized peripheral blood by density gradient centrifugation over Lymphoprep (Nycomed, Maorstua, Norway). Allogeneic PBMC or EBV-transformed human B cells [RPMI1788 (ATCC name CCL156)] which strongly express B7-1 and B7-2 were used as stimulator calls after irradiation with 30 Gy. MLR was performed in triplicate wells. After 5 days incubation at 37° C., 1 μCi [^3H]-thymidine was added to each cup. After a further 16 hours incubation, cells were harvested and counted in a β-counter.
# The percent suppression of proliferation by drugs was counted using the formula: […]
melting point [°C],Molecule,IC50 (Highly purified T cells [1]) [µM],% suppresion [2] [%],IC50 (Highly purified T cells [3]) [µM],IC50 [4] [µM],"IC50 (Highly purified T cells [1]; Homo sapiens, T-cell) [µM]","IC50 (Highly purified T cells [3]; Homo sapiens, T-cell) [µM]","IC50 ([4]; Homo sapiens, PBMC) [µM]"
,"1,3-dipropyl-8-[4(diethylamino(propyl(amino-(sulfonyl))))fenyl]xanthine [Compound 11]",55,33,40,25,,,
155,"CC#Cn1c(=O)c2c(ncn2C#CC)n(C#CC)c1=O [Compound 5, 1,3,7-tripropynylxanthine]",,,,,> 200,50,> 200
172,"CC#Cn1c(=O)c2c(ncn2C)n(C#CC)c1=O [Compound 4, 1,3-dipropynyl-7-methylxanthine]",,,,,> 200,90,> 200
158,"Cn1c(=O)c2c(ncn2C)n(CC(C)(C)C)c1=O [Compound 68, 1,7-dimethyl-3-((tertbutyl)methyl)xanthine]",,,,,120,130,75
177,"CC#Cn1c(=O)c2c(ncn2C#CC)n(C)c1=O [Compound 2, 1,7-dipropynyl-3-methylxanthine]",,,,,,,
,"1,7-diallyl-3-propyl-8-(4-chlorofenyl)xanthine [Compound 119]",30,,50,15,,,
,"Cn1cnc2c1c(=O)n(CCCC(=O)O)c(=O)n2C [Compound 23, 1-(3-carboxypropyl)-3,7-dimethylxanthine]",,,,,> 200,> 200,> 200
195,"Cn1cnc2c1c(=O)n(CCCCC(=O)O)c(=O)n2C [Compound 22, 1-(4-Carboxybutyl)-3,7-dimethylxanthine]",,,,,> 200,> 200,> 200
,CC(O)CCCCn1c(=O)c2c(ncn2C)n(C)c1=O (stereo not drawn) [Compound 25],160,,140,> 200,,,
,"Cc1oncc1C(=O)Nc1ccc(C(F)(F)F)cc1 [Leflunomide, reference compound]",,,,,20,15,25
,Cn1c(=O)c2c(nc(C3CCCC3)n2C)n(C)c1=S [Compound 66],170,,170,> 200,,,
,"1,7-diallyl-3-propyl-8-fenylxanthine [Compound 114]",70,,85,15,,,
